Series [1] has as its system A549. Description: Antitumor activity against human A549 cells xenografted in Balb/c nude mouse assessed as tumor weight at 3 mg/kg, iv dosed as Q3D x 3 weeks regime (reference value: 0.596 +/- 0.042 g). The class given is functional. In general terms: In xenograft studies the graft and the host belong to different species.
Series [2] has as its system NCI-H1975. The series can be described thus: Antiproliferative activity in human NCI-H1975 cells assessed as inhibition of cell proliferation at 6.25 nM incubated for 72 hrs by MTT assay. The class given is functional. Particulars: NCI-H1975, 72 h. On the technique in general: Tetrazolium assays rely on reduction of a dye to a coloured formazan, in cell work by metabolically active cells.

The test system of series [3] is A549. Description: Antiproliferative activity in human A549 cells assessed as inhibition of cell proliferation at 1.5625 nM incubated for 72 hrs by MTT assay. To be noted: A549, 72 h. The class given is functional.
For series [4], the system named is A549. Description: Antiproliferative activity in human A549 cells assessed as inhibition of cell proliferation at 50 nM incubated for 72 hrs by MTT assay. Format: functional. To be noted: A549, 72 h.
Series [5] concerns NCI-H1975. The series can be described thus: Antiproliferative activity in human NCI-H1975 cells assessed as inhibition of cell proliferation at 1.5625 nM incubated for 72 hrs by MTT assay. To be noted: NCI-H1975, 72 h. Format: functional.
Series [6] deals with NCI-H1975. The series can be described thus: Antiproliferative activity in human NCI-H1975 cells assessed as inhibition of cell proliferation at 50 nM incubated for 72 hrs by MTT assay. Particulars: NCI-H1975, 72 h. The class given is functional.
The test system of series [7] is A549. Description: Antiproliferative activity in human A549 cells assessed as inhibition of cell proliferation at 3.125 nM incubated for 72 hrs by MTT assay. Format: functional. Particulars: A549, 72 h.
In series [8] the test system is A549. Description: Antitumor activity against human A549 cells xenografted in Balb/c nude mouse assessed as tumor weight at 12 mg/kg, iv dosed as Q3D x 3 weeks regime (reference value: 0.596 +/- 0.042 g). The class given is functional.
The test system of series [9] is NCI-H1975. Description: Antiproliferative activity in human NCI-H1975 cells assessed as inhibition of cell proliferation at 3.125 nM incubated for 72 hrs by MTT assay. The class given is functional. To be noted: NCI-H1975, 72 h.
In series [10] the test system is NCI-H1975. The series can be described thus: Antiproliferative activity in human NCI-H1975 cells assessed as inhibition of cell proliferation at 25 nM incubated for 72 hrs by MTT assay. Format: functional. Particulars: NCI-H1975, 72 h.
Series [11] has as its system A549. Description: Antiproliferative activity in human A549 cells assessed as inhibition of cell proliferation at 25 nM incubated for 72 hrs by MTT assay. Particulars: A549, 72 h. The class given is functional.
Series [12] relates to NCI-H1975. Description: Antiproliferative activity in human NCI-H1975 cells assessed as inhibition of cell proliferation at 12.5 nM incubated for 72 hrs by MTT assay. Format: functional. To be noted: NCI-H1975, 72 h.
The test system of series [13] is A549. The series can be described thus: Antitumor activity against human A549 cells xenografted in Balb/c nude mouse assessed as tumor weight at 6 mg/kg, iv dosed as Q3D x 3 weeks regime (reference value: 0.596 +/- 0.042 g). The class given is functional.
The test system of series [14] is A549. The series can be described thus: Antitumor activity against human A549 cells xenografted in Balb/c nude mouse assessed as tumor volume at 12 mg/kg, iv dosed as Q3D x 3 weeks regime relative to untreated control. Format: functional.
Series [15] has as its system A549. Description: Antiproliferative activity in human A549 cells assessed as inhibition of cell proliferation at 12.5 nM incubated for 72 hrs by MTT assay. To be noted: A549, 72 h. The class given is functional.
Series [16] is described as follows: Toxicity in human A549 cells xenografted Balb/c nude mouse assessed as body weight change weight at 12 mg/kg, iv dosed on day 0, 3, 6, 9, 12, 15 and 18 regime (reference value: 6.96%). Particulars: in vivo. Format: organism-based.
Series [17] has as its system A549. Description: Antitumor activity against human A549 cells xenografted in Balb/c nude mouse assessed as tumor volume at 3 mg/kg, iv dosed as Q3D x 3 weeks regime relative to untreated control. Format: functional.
For series [18], the system named is A549. The series can be described thus: Antiproliferative activity in human A549 cells assessed as inhibition of cell proliferation at 6.25 nM incubated for 72 hrs by MTT assay. The class given is functional. To be noted: A549, 72 h.
The nature of series [19]: Toxicity in Balb/c nude mouse dosed intravenously every 3 days for consecutive 21 days. Format: organism-based. To be noted: in vivo, iv.
The subject of series [20] is A549. The series can be described thus: Cytotoxicity in human A549 cells assessed as reduction in cell viability incubated for 72 hrs by MTT assay. To be noted: A549, 72 h. The class given is functional, cell-based.
The test system of series [21] is NCI-H1975. Description: Cytotoxicity in human NCI-H1975 cells assessed as reduction in cell viability incubated for 72 hrs by MTT assay. The class given is functional, cell-based. To be noted: NCI-H1975, 72 h.
Series [22] can be described thus: Toxicity in human A549 cells xenografted Balb/c nude mouse assessed as body weight change weight at 6 mg/kg, iv dosed on day 0, 3, 6, 9, 12, 15 and 18 regime (reference value: 6.96%). The class given is organism-based. Particulars: in vivo.
Series [23] is described as follows: Toxicity in human A549 cells xenografted Balb/c nude mouse assessed as body weight change weight at 3 mg/kg, iv dosed on day 0, 3, 6, 9, 12, 15 and 18 regime (reference value: 6.96%). The class given is organism-based. Particulars: in vivo.
In series [24] the test system is A549. Description: Antitumor activity against human A549 cells xenografted in Balb/c nude mouse assessed as tumor volume at 6 mg/kg, iv dosed as Q3D x 3 weeks regime relative to untreated control. The class given is functional.
Series [25] deals with Tubulin (Homo sapiens) (UniProt P68371+Q9H4B7+P0DPH7+P68366+Q13509+Q71U36+P04350+Q3ZCM7+P07437+P68363+Q9BQE3+Q6PEY2+Q13885+Q9BVA1+Q9BUF5). The series can be described thus: Inhibition of tubulin (unknown origin) polymerization at 5 uM. The class given is protein-complex assay.
The test system of series [26] is A549. The series can be described thus: Antitumor activity against human A549 cells xenografted in Balb/c nude mouse assessed as tumor volume at 10 mg/kg, iv dosed as QW x 3 weeks regime relative to untreated control. The class given is functional.
A short description of series [27]: Toxicity in human A549 cells xenografted Balb/c nude mouse assessed as body weight change weight at 10 mg/kg, iv dosed on day 0, 7 and 14 (reference value: 6.96%). The class given is organism-based. To be noted: in vivo.
The test system of series [28] is A549. Description: Antitumor activity against human A549 cells xenografted in Balb/c nude mouse assessed as tumor weight at 10 mg/kg, iv dosed as QW x 3 weeks regime (reference value: 0.596 +/- 0.042 g). The class given is functional.

Consider 3 compounds from ChEMBL document CHEMBL4392834, “Polymorphs, co-crystal structure and pharmacodynamics study of MBRI-001, a deuterium-substituted plinabulin derivative as a tubulin polymerization inhibitor” (Bioorg Med Chem, 2019).

SMILES strings stand for the structures.

With `[2H]/C(c1nc[nH]c1C(C)(C)C)=c1/[nH]c(=O)/c(=C/c2ccccc2)[nH]c1=O`, the Activity in [1] is reported as 0.442 g; in series [8], 0.308 g; in series [13], 0.344 g; in series [16], 2.36%; in [22], 6.78%; in series [23], 6.75%. In addition, the inhibition (in general, the share of the control response that was lost under treatment) at 0.00625 µM was in the range of 12.3 to 22.6% in series [2] and 82 to 86.7% in [18]. Further, the figures for the inhibition at 0.0015625 µM in series [3] and in series [5] were 0.92 to 9.22% and 2.75 to 10.3%, respectively. The inhibition at 0.05 µM in series [4] was in the range of 83.2 to 87.9%; in series [6], 90.8 to 91.7%. The inhibition at 0.003125 µM lay within 54.8 to 61.6% in series [7] and 3.64 to 12.3% in [9]. Also, the inhibition at 0.025 µM in series [10] is 90.4 to 91.5%; in series [11], 88 to 88.7%. Also, the inhibition at 0.0125 µM in [12] was 70.7 to 81.7%; in [15], 83.2 to 86.3%. Moreover, the T/C – broadly, the result in the treated group divided by that in the control group, in per cent – in series [14] was determined as 54.39%; in series [17], 70.88%; in series [24], 59.01%. Moreover, the median lethal dose (LD50) (commonly the dose expected to kill half of the subjects tested) at 21 days in [19] was 18.9 mg/kg. Moreover, the IC50 – broadly, the concentration that inhibits the measured activity by half – worked out at 2.5 nM in series [20] and 9.3 nM in [21].
As to `CC(C)(C)c1[nH]cnc1/C=c1\[nH]c(=O)/c(=C/c2ccccc2)[nH]c1=O` [PLINABULIN], the inhibition at 0.00625 µM in series [2] fell in the range of 13.3 to 25.7%; in series [18], 88 to 88.7%. Also, the inhibition at 0.0015625 µM was in the range of 23.3 to 29.4% in series [3] and 1.03 to 11.2% in series [5]. In addition, the inhibition at 0.05 µM in [4] is 86.6 to 89.2%; in [6], 88.7 to 91.3%. Besides, the values for the inhibition at 0.003125 µM in series [7] and in [9] were 42.5 to 50.8% and 3.89 to 15.5%, respectively. In addition, the Activity in [8] amounted to 0.327 g; in series [13], 0.349 g; in series [16], 6.33%; in series [22] it was 5.66%. In addition, the inhibition is 27.9% in series [25] and 30.1% in series [25] (tested as the 2H-labelled form). Further, the figures for the inhibition at 0.025 µM in series [10] and in series [11] were 86.3 to 90.8% and 88.4 to 89.5%, respectively. Further, the values for the inhibition at 0.0125 µM in series [12] and in series [15] were 61.1 to 69.1% and 85.1 to 88.9%, respectively. For the same compound, the T/C came out at 56.7% in [14] and 61.48% in [24]. Further, the IC50 in series [20] came out at 3.5 nM; in series [21], 10.2 nM.
Consider `CC(=O)O[C@@]12CO[C@@H]1C[C@H](O)[C@@]1(C)C(=O)[C@H](O)C3=C(C)[C@@H](OC(=O)[C@H](O)[C@@H](NC(=O)OC(C)(C)C)c4ccccc4)C[C@@](O)([C@@H](OC(=O)c4ccccc4)[C@H]21)C3(C)C` [DOCETAXEL ANHYDROUS], for which the T/C in series [26] amounted to 26.5%. Moreover, the Activity in series [27] is -0.66%; in [28] it was 0.13 g.
